Laboratory results from publication PMC3243944 (Biopolymers, 2011).
Where no end group is shown, it is not given here.

Key:
[1] = test system: 5-helix bundle (5HB) protein construct derived from the hRSV fusion (F) protein; conditions: protein-based (5HB) FP screening assay; cited from earlier work
[2] = Solubility in aqueous buffer; type: physicochemical

In the case of ISQVNEKINQSLAFIRKSDE [C20], the “Binding affinity to the 5HB” value [1] is given as “low micromolar” and the solubility [2] is given as under 2000 µg/mL.
